Source: US12582657B2, “Combination therapy including a KRAS G12C inhibitor and one or more additional pharmaceutically active agents for the treatment of cancers” (Amgen Inc., priority 2018, dated 2026)
Where two headings read alike, the source gives them in different places.

Key:
Assay type in all cases: cell-based
[1] = system: ERK1/2 phosphorylation in AsPC-1 cells; experiment: Basal ERK1/2 phosphorylation assay (MSD); details: Homo sapiens, ASPC1; AsPC-1, pancreas, KRAS p.G12D homozygous; 2-hour treatment
Protocol: (§1) For cellular assays, 2.5E+04 cells were seeded per well in 96-well plates and incubated at 37° C., 5% CO2, o/n. The following day, 3-fold serially-diluted compound or DMSO was added to the cells, and the plates were incubated at 37° C., 5% CO2 for 2 hours. […] Signal intensity corresponded with phospho-ERK1/2 levels and was normalized DMSO control.

[2] = system: ERK1/2 phosphorylation in SW1463 cells; experiment: Basal ERK1/2 phosphorylation assay (MSD); details: Homo sapiens; SW1463, colon, KRAS p.G12C homozygous; 2-hour treatment
Protocol: as §1

[3] = system: HCC-827 cells; experiment: Cell viability assay (CellTiter-Glo, adherent); details: Homo sapiens, HCC827, HCC-827, lung, KRAS WT EGFR p.E746_A750del, 72-hour treatment
Protocol: (§2) For adherent viability assays, 0.5-1.0E+03 cells were seeded per well in 384-well plates (or 2.5-4.0E+04 cells per well in 96-well plates) and incubated at 37° C., 5% CO2, o/n. The following day, serially-diluted compound or DMSO was added to the cells, and the plates were incubated at 37° C., 5% CO2 for 72 hours. Cell viability was measured using a CellTiter-Glo® Luminescent Cell Viability Assay kit (Promega) according to the manufacturer's protocol. The luminescence signal of treated samples was normalized to DMSO control.

[4] = system: NCI-H23 cells; experiment: Cell viability assay (CellTiter-Glo, adherent); details: Homo sapiens, NCI-H23, lung, KRAS p.G12C heterozygous, 72-hour treatment
Protocol: as §2

[5] = system: NCI-H1792 cells; experiment: Cell viability assay (CellTiter-Glo, adherent); details: Homo sapiens, NCI-H1792, lung, KRAS p.G12C heterozygous, 72-hour treatment
Protocol: as §2

[6] = system: Calu-1 cells; experiment: Cell viability assay (CellTiter-Glo, adherent); details: Homo sapiens, Calu-1, lung, KRAS p.G12C heterozygous, 72-hour treatment
Protocol: as §2

[7] = system: UM-UC-3 cells; experiment: Cell viability assay (CellTiter-Glo, adherent); details: Homo sapiens, UMUC3, UM-UC-3, bladder, KRAS p.G12C homozygous, 72-hour treatment
Protocol: as §2

[8] = system: SW837 cells; experiment: Cell viability assay (CellTiter-Glo, adherent); details: Homo sapiens, SW837, colon, KRAS p.G12C heterozygous, 72-hour treatment
Protocol: as §2

[9] = system: NCI-H1322 cells; experiment: Cell viability assay (CellTiter-Glo, adherent); details: Homo sapiens, 72 h, read-out: Cell Viability IC50
Protocol: as §2

[10] = system: NCI-H1373 cells; experiment: Cell viability assay (CellTiter-Glo, adherent); details: Homo sapiens, NCI-H1373, lung, KRAS p.G12C homozygous, 72-hour treatment
Protocol: as §2

[11] = system: LS 174T cells; experiment: Cell viability assay (CellTiter-Glo, adherent); details: Homo sapiens, LS174T, colon, KRAS p.G12D heterozygous, 72-hour treatment
Protocol: as §2

[12] = system: SW480 cells; experiment: Cell viability assay (CellTiter-Glo, adherent); details: Homo sapiens, SW480, colon, KRAS p.G12V homozygous, 72-hour treatment
Protocol: as §2

[13] = system: A549 cells; experiment: Cell viability assay (CellTiter-Glo, adherent); details: Homo sapiens, A549, lung, KRAS p.G12S homozygous, 72-hour treatment
Protocol: as §2

[14] = system: NCI-H358 cells; experiment: Cell viability assay (CellTiter-Glo, adherent); details: Homo sapiens, 72-hour treatment
Protocol: as §2

[15] = system: SW1573 cells; experiment: Cell viability assay (CellTiter-Glo, adherent); details: Homo sapiens, SW1573, lung, KRAS p.G12C homozygous, 72-hour treatment
Protocol: as §2

[16] = system: KM12 cells; experiment: Cell viability assay (CellTiter-Glo, adherent); details: Homo sapiens, KM12, colon, KRAS WT TPM3-NTRK fusion, 72-hour treatment
Protocol: as §2

[17] = system: NCI-H1355 cells; experiment: Cell viability assay (CellTiter-Glo, adherent); details: Homo sapiens, NCI-H1355, lung, KRAS p.G13C heterozygous, 72-hour treatment
Protocol: as §2

[18] = system: SW1463 cells; experiment: Cell viability assay (CellTiter-Glo, adherent); details: Homo sapiens, SW1463, colon, KRAS p.G12C homozygous, 72-hour treatment
Protocol: as §2

[19] = system: COLO-205 cells; experiment: Cell viability assay (CellTiter-Glo, adherent); details: Homo sapiens, COLO-205, colon, KRAS WT BRAF p.V600E, 72-hour treatment
Protocol: as §2

[20] = system: A-427 cells; experiment: Cell viability assay (CellTiter-Glo, adherent); details: Homo sapiens, A-427, lung, KRAS p.G12D heterozygous, 72-hour treatment
Protocol: as §2

[21] = system: MIA PaCa-2 cells; experiment: Cell viability assay (CellTiter-Glo, adherent); details: Homo sapiens, 72-hour treatment
Protocol: as §2

[22] = system: NCI-H2030 cells; experiment: Cell viability assay (CellTiter-Glo, adherent); details: Homo sapiens, NCI-H2030, lung, KRAS p.G12C homozygous, 72-hour treatment
Protocol: as §2

[23] = system: AsPC-1 cells; experiment: Cell viability assay (CellTiter-Glo, adherent); details: Homo sapiens, ASPC1, AsPC-1, pancreas, KRAS p.G12D homozygous, 72-hour treatment
Protocol: as §2

[24] = system: NCI-H2122 cells; experiment: Cell viability assay (CellTiter-Glo, adherent); details: Homo sapiens, NCI-H2122, lung, KRAS p.G12C homozygous, 72-hour treatment
Protocol: as §2

[25] = system: SW1573 cells; experiment: Spheroid cell viability assay (CellTiter-Glo 3D); details: Homo sapiens; SW1573, lung, KRAS p.G12C homozygous; 72-hour treatment, spheroid culture
Protocol: (§3) For spheroid viability assays, 2.5-4.0E+04 cells were seeded per well in 96-well spheroid microplates (Corning) and incubated at 37° C., 5% CO2 for 24 hours. The same procedure was followed as described above, except viability was measured using a CellTiter-Glo® 3D Cell Viability Assay kit (Promega) according to the manufacturer's protocol.

[26] = system: NCI-H2122 cells; experiment: Spheroid cell viability assay (CellTiter-Glo 3D); details: Homo sapiens; NCI-H2122, lung, KRAS p.G12C homozygous; 72-hour treatment, spheroid culture
Protocol: as §3

Structure (SMILES): C=CC(=O)N1CCN(c2nc(=O)n(-c3c(C)ccnc3C(C)C)c3nc(-c4c(O)cccc4F)c(F)cc23)[C@@H](C)C1 (atropisomer, axis not shown) [AMG 510, 6-fluoro-7-(2-fluoro-6-hydroxyphenyl)-1-(4-methyl-2-(2-propanyl)-3-pyridinyl)-4-((2S)-2-methyl-4-(2-propenoyl)-1-piperazinyl)pyrido[2,3-d]pyrimidin-2(1H)-one]
- IC50 [1]: > 10000 nM
- IC50 [2]: 33 ± 4 nM
- IC50 [3]: > 7500 nM
- IC50 [4]: 6 ± 1 nM
- IC50 [5]: 11 ± 8 nM
- IC50 [6]: 4 ± 1 nM
- IC50 [7]: 5 ± 1 nM
- IC50 [8]: 9 ± 6 nM
- IC50 [9]: > 7500 nM
- IC50 [10]: 20 ± 6 nM
- IC50 [11]: > 7500 nM
- IC50 [12]: > 7500 nM
- IC50 [13]: > 7500 nM
- IC50 ([14]; first of two lines (FIG. 40G: NCI-H358), read-out: cellular viability IC50): ~6 nM
- IC50 ([14]; NCI-H358, lung, KRAS p.G12C heterozygous, adherent, read-out: Cell Viability IC50): 4 ± 1 nM
- IC50 [15]: > 7500 nM
- IC50 [16]: > 7500 nM
- IC50 [17]: > 7500 nM
- IC50 [18]: 15 ± 7 nM
- IC50 [19]: > 7500 nM
- IC50 [20]: > 7500 nM
- IC50 ([21]; second of two lines (FIG. 40G: MIA PaCa-2), read-out: cellular viability IC50): ~9 nM
- IC50 ([21]; MIA PaCa-2, pancreas, KRAS p.G12C homozygous, adherent, read-out: Cell Viability IC50): 5 ± 1 nM
- IC50 [22]: 6 ± 3 nM
- IC50 [23]: > 7500 nM
- IC50 [24]: 32 ± 5 nM
- IC50 [25]: > 10000 nM
- IC50 [26]: 9 ± 2 nM
